Test results taken from PMC4992173, “Divergent synthesis and identification of the cellular targets of deoxyelephantopins” (Nature Communications, 2016).

Biological target: T1, Glyoxylate reductase/hydroxypyruvate reductase (GRHPR) (Homo sapiens, UniProt Q9UBQ7)
T1 construct: endogenous in cells; host or cells: MCF7
Assay: In situ competitive profiling in live MCF7 cells (LFQ): GRHPR
Format: cell-based
Conditions: protein GRHPR, 4 h, then 10 µM 24c, n=4
Text: In our efforts to determine the direct molecular targets of deoxyelephantopin we first performed a gel-based competitive in situ proteomic profiling assay[41] […] While the greater conformational flexibility of probe 24c could potentially lead to more promiscuous target engagement relatively to deoxyelephantopin, it was favoured based on the fact that an alkyne moiety appended to the rigid scaffold of deoxyelephantopin may hinder some of its interactions. MCF7 cells were pretreated with various concentrations of deoxyelephantopin for 4 h, harvested, lysed and the lysates were treated with the fluorogenic probe 24c-Cy3 (10 μM; Supplementary Fig. 10). […] Furthermore, cells were pretreated with 20 μM concentration of deoxyelephantopin or 24c and the proteomic profiles were compared (Fig. 6b, Supplementary Fig. 11). Multiple bands were detected that were equally competed by both DEP and 24c, thus again confirming that 24c can be used as an acceptable clickable analogue of deoxyelephantopin in pulldown assays. Having established the optimal labelling conditions by SDS–PAGE, we next carried out a mass spectrometry-based competitive profiling assay[42] coupled with the method of stable isotope labelling of amino acids in culture (SILAC)[43]. […]
Figure 6 Proteome-wide identification of deoxyelephantopin targets. […] Quantification was performed using label-free quantification (LFQ) method (n=4). […]

T1 sequence (Q9UBQ7 whole entry): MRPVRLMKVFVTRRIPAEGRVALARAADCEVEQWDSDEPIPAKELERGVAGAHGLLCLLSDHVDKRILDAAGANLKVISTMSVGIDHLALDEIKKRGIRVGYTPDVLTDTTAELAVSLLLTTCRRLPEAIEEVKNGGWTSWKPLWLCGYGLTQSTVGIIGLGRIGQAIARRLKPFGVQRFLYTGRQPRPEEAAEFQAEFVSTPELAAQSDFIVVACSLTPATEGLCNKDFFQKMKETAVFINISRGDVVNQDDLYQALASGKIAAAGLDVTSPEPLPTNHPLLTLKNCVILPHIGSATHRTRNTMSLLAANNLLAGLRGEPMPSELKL

C=C(C)C(=O)O[C@H]1CC2=C[C@@H](C/C(C)=C/[C@H]3OC(=O)C(=C)[C@H]13)OC2=O [deoxyelephantopin]
LFQ ratio 20 µM Deoxyelephantopin/DMSO with 24c: 0.00
